From ChEMBL document CHEMBL2203174, “SAR Development of Lysine-Based Irreversible Inhibitors of Transglutaminase 2 for Huntington's Disease” (ACS Med Chem Lett, 2012)
Peptide text beside a SMILES is read from it. * marks the point of attachment. Cbz = O=C(OCc1ccccc1)*; Acryloyl = C=CC(=O)*; OtBu = CC(C)(C)O*

Tests used:
[1] = target: T1, Coagulation factor XIII A chain (Homo sapiens, UniProt P00488); experiment: Inhibition of coagulation factor 13a
T1 sequence (P00488 whole entry): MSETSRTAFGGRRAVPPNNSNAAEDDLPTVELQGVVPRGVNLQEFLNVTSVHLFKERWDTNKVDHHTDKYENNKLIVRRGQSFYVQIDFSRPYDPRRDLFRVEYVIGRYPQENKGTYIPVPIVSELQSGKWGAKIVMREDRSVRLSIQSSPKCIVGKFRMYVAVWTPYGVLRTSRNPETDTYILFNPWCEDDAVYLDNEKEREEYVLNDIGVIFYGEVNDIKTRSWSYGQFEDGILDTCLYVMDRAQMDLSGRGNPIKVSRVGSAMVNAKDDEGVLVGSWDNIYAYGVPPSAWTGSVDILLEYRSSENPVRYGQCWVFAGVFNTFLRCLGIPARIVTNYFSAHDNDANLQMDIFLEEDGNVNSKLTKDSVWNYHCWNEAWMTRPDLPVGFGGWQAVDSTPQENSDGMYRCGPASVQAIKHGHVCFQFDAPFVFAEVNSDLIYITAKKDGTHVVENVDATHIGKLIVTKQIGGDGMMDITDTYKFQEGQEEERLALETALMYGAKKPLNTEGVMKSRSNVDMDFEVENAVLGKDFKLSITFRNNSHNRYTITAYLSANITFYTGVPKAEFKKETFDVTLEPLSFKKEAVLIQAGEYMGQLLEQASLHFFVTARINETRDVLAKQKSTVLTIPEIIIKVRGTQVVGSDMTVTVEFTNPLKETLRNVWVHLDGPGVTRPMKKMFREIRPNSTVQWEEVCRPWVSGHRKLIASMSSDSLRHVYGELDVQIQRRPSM

[2] = target: T2, Protein-glutamine gamma-glutamyltransferase 6 (Homo sapiens, UniProt O95932); experiment: Inhibition of transglutaminase 6
T2 sequence (O95932 whole entry): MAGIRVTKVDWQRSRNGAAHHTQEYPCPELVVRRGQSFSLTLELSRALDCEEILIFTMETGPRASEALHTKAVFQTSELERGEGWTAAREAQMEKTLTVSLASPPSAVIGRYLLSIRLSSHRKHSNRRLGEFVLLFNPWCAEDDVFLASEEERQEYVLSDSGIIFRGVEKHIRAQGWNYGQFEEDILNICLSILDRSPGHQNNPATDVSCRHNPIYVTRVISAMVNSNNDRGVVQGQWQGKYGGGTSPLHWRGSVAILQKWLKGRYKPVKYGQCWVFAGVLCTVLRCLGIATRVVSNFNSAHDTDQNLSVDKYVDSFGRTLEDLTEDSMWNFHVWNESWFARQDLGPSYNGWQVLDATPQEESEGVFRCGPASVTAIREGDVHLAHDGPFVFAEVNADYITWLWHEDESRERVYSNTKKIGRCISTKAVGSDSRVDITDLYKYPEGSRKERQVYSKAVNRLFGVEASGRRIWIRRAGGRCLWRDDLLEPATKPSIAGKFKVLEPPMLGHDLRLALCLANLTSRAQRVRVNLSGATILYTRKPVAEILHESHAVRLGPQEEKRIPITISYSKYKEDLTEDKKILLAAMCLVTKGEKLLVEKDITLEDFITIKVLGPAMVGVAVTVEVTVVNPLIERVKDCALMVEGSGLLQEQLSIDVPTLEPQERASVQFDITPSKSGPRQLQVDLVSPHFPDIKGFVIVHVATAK

[3] = target: T3, Protein-glutamine gamma-glutamyltransferase E (Homo sapiens, UniProt Q08188); experiment: Inhibition of transglutaminase 3
T3 sequence (Q08188 whole entry): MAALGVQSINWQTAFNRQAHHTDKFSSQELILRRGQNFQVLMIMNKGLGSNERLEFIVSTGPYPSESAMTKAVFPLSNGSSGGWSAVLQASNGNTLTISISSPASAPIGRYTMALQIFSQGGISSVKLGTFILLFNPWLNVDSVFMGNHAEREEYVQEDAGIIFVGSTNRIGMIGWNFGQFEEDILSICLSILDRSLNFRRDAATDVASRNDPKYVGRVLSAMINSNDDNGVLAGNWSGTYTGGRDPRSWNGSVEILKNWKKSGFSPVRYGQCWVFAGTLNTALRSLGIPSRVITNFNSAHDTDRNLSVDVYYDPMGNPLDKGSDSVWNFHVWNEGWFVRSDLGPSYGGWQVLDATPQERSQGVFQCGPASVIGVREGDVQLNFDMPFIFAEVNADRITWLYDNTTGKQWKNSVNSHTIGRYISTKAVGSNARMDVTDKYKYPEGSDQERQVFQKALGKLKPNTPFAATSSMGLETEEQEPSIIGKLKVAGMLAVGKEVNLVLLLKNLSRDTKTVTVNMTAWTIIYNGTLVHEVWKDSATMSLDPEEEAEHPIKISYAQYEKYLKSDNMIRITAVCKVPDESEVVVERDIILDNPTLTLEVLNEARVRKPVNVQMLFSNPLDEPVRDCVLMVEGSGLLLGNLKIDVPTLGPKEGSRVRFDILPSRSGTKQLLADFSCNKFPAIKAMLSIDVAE

[4] = target: T4, Protein-glutamine gamma-glutamyltransferase (Homo sapiens, UniProt P21980); experiment: Irreversible inhibition of transglutaminase 2
T4 sequence (P21980 whole entry): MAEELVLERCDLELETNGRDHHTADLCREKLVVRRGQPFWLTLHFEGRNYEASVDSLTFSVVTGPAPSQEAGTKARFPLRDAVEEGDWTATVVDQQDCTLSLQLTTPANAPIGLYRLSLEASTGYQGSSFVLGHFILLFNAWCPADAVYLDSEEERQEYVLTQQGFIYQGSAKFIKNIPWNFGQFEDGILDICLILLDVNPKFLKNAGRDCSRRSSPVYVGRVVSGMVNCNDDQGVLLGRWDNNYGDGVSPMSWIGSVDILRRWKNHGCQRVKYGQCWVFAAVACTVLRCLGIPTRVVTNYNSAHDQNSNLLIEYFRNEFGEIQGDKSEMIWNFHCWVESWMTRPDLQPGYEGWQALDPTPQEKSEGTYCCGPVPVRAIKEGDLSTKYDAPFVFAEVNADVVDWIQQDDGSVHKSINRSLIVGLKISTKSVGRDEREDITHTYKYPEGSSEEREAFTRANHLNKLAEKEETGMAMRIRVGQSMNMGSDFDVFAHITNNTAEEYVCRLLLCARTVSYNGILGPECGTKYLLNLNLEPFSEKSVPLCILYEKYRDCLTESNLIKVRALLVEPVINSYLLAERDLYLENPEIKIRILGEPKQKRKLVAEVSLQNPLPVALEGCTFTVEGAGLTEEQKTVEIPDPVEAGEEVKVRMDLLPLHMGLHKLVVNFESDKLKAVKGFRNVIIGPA

Row | IC50 [1] [µM] | IC50 [2] [µM] | IC50 [3] [µM] | IC50 [4] [µM] | SMILES
1 | 67 | 69 | > 80 | 0.062 | C=CC(=O)NCCCC[C@H](NC(=O)OCc1ccccc1)C(=O)N1CCN(c2ccccc2Cl)CC1
2 | > 80 | > 80 | > 80 | 3.1 | C=CC(=O)NCCCC[C@H](NC(=O)OCc1ccccc1)C(=O)NCC(=O)OC(C)(C)C (Cbz-Lys(Acryloyl)-Gly-OtBu)
3 | 35 | > 80 | > 80 | 0.014 | C=CC(=O)NCCCC[C@H](NC(=O)Cc1ccccc1)C(=O)N1CCN(c2cccc(C)n2)CC1
